Results: US4371544A, “Pharmaceutical composition containing 1,1,3,5-substituted biuret compound” (Taiho Pharmaceutical Company Limited, priority 1979, dated 1983)

Tests used:
[1] = tested on: ddy strain of male mice; assay: Acute toxicity (oral, mice, 7 days observation); format: in vivo
Description: (§1) Next, several tests for determining the pharmacological properties, in that acute toxicity, anti-pyretic activity, analgesic activity and anti-inflammatory activity of the present 1,1,3,5-substituted biuret compounds of the formula (1) were conducted and the test results are shown in Table (2). In the tests, each compounds to be tested was used as a suspension in 0.25% carboxymethylcellulose solution. Methods for testing are explained as follows:
The ddy strain of male mice (body weight, 20-25 g) were used as test animals. The mice were fasted overnight and the compound to be tested was administered orally. […] The lethal dose (mg/kg, body weight) of the test compound was determined in connection with the death number of mice/the number of mice tested. In Table 2, the values indicated with Δ marks are 50% lethal dose, LD50 (mg/kg, body weight).

[2] = tested on: Wistar strain of male rats; assay: Anti-pyretic activity (dry-yeast-induced fever); format: in vivo, rat (Wistar); conditions: oral (dose not given), up to 4 hours after administration
Description: as §1
According to the method reported by Tanabe [Folia Pharmacologia Japonica, Vol. 73, pp. 803 (1977)], the Wistar strain of male rats (150-180 g, body weight) were used as test animals. The rats were fasted overnight, and 1 ml/100 g (body weight) of 10% dry-yeast suspension were subcutaneously injected on the back of the rats. Five hours after the injection, the test compound was administered orally, then the body temperature of the rat was measured at time sequences. Anti-pyretic activity of the test compound was determined as the FI (febril index) by integrating pyrogenetic curve up to 4 hours after the administration of the test compound with time, and indicated as inhibitory ratio (%) shown by the following formula, [formula]

[3] = tested on: ddy strain of male mice; assay: Analgesic activity, acetic acid-induced stretching method; format: in vivo, mouse (ddy); conditions: for Analgesic activity, acetic acid-induced stretching method, inhibitory ratio: 100 mg/kg oral, 1 hour before acetic acid; for inhibition in vivo at 100 mg/kg: Mus musculus, po, read-out: Analgesic activity, acetic acid-induced stretching method, inhibitory ratio
Description: as §1
According to the method reported by Koster et al., [Fed. Proc., Vol. 18, pp. 412 (1959)], the ddy strain of male mice (body weight, 20-25 g) were used as test animals. The mice were fasted overnight, 100 mg/kg body weight of the test compound was administered orally, then 1 hour after the administration, 0.2 ml of 0.7% acetic acid solution was injected intraperitoneally. The acetic acid-induced stretching symptom of mouse was observed. Analgesic activity of the test compound was calculated as the inhibitory ratio (%). In Table 2, the values in parentheses show the data obtained from the test by using the dosage other than 100 mg/kg body weight. Further, the values indicated with Δ marks show 50% effective dose, ED50 (mg/kg body weight).

[4] = tested on: ddy strain of male mice; assay: Analgesic activity, Haffner method (morphine threshold dose, clamp); format: in vivo, mouse (ddy); conditions: for inhibition in vivo at 100 mg/kg: read-out: Analgesic activity, Haffner method, inhibitory ratio
Description: as §1
According to the modified method reported by Fujimura et. al., [Bulletin of the Institute for Chemical Research, Kyoto University, No. 25, pp. 36 (1951)], the ddy strain of male mice (body weight, 20-25 g) were used as test animals. The mice were fasted overnight, 100 mg/kg body weight of the test compound was administered orally, then 45 minutes after the administration, the threshold amount (1.5-2.5 mg/kg body weight) of morphine hydrochloride was injected subcutaneously. Then 1-hour pain reaction of the mouse caused by a clamp was observed. Analgesic activity of the test compound was calculated as the inhibitory ratio (%). In Table 2, the values in parentheses show the data obtained from the test by using the dosage other than 100 mg/kg body weight. Further, the values indicated with Δ marks show 50% effective dose, ED50 (mg/kg body weight).

[5] = 100 mg/kg oral, 45 minutes before morphine hydrochloride
[6] = Mus musculus, 100 mg/kg oral, 45 minutes before morphine hydrochloride

| Structure (SMILES) | Acute toxicity: death number of mice/number of mice tested ([1]; 1000 mg/kg oral) | Acute toxicity: death number of mice/number of mice tested ([1]; 2000 mg/kg oral) | Anti-pyretic activity, inhibitory ratio (febril index) [2] [%] | Analgesic activity, acetic acid-induced stretching method, inhibitory ratio [3] [%] | Analgesic activity, Haffner method, inhibitory ratio [4, 5] [%] | Analgesic activity, Haffner method, inhibitory ratio ([4]; 200 mg/kg oral) [%] | inhibition in vivo at 100 mg/kg [4, 6] [%] | inhibition in vivo at 100 mg/kg [3] [%] | Acute toxicity: death number of mice/number of mice tested ([1]; mouse, in vivo) | ED50 ([4]; Mus musculus, oral, Δ mark, range in parentheses) [mg/kg] |
| --- | --- | --- | --- | --- | --- | --- | --- | --- | --- | --- |
| CN(C)C(=O)N(C)C(=O)Nc1ccc(Cl)c(Cl)c1 [compound 14, 1,1,3-Trimethyl-5-(3,4-dichlorophenyl)biuret] | 1/4 | 3/4 | 43 | 50 | 62.5 |  |  |  |  |  |
| CCCN(C(=O)Nc1ccccc1)C(=O)N(C)C [compound 37, 1,1-Dimethyl-3-n-propyl-5-phenylbiuret] |  | 0/4 | 12 | 37.5 |  | 62.5 |  |  |  |  |
| Cc1cccc(C)c1NC(=O)N(C)C(=O)N(C)C [compound 31, 1,1,3-Trimethyl-5-(2,6-dimethylphenyl)biuret] |  |  | 69 | 75 | 37.5 |  |  |  |  |  |
| CN(C)C(=O)N(C)C(=O)Nc1ccc(Cl)cc1Cl [compound 13, 1,1,3-Trimethyl-5-(2,4-dichlorophenyl)biuret] | 0/4 | 3/4 | 42 | 50 | 75 |  |  |  |  |  |
| CN(C)C(=O)N(C)C(=O)Nc1ccc(F)cc1 [compound 8, 1,1,3-Trimethyl-5-(4-fluorophenyl)biuret] |  |  | 61 | 87.5 | 62.5 |  |  |  |  |  |
| Cc1cccc(NC(=O)N(C)C(=O)N(C)C)c1C [compound 29, 1,1,3-Trimethyl-5-(2,3-dimethylphenyl)biuret] | 1/4 | 4/4 | 40 |  | 25 |  |  |  |  |  |
| COc1ccccc1NC(=O)N(C)C(=O)N(C)C [compound 22, 1,1,3-Trimethyl-5-(2-methoxyphenyl)biuret] | 0/4 | 2/4 | 13 | 37.5 |  |  | 50 |  |  |  |
| CN(C)C(=O)NC(=O)Nc1ccc(Cl)cc1 [Compound No. 3] |  | 0/4 |  |  |  |  |  | 50 |  |  |
| CN(C(=O)Nc1ccccc1)C(=O)N1CCOCC1 [compound 73, 1,1-(3-Oxapentamethylene)-3-methyl-5-phenylbiuret] |  |  | 17 |  |  |  | 25 | 50 | 0/4 |  |
| CN(C)C(=O)N(C)C(=O)Nc1c(Cl)cccc1Cl [compound 15, 1,1,3-Trimethyl-5-(2,6-dichlorophenyl)biuret] |  |  | 29 | 50 | 50 |  |  |  |  |  |
| CN(C(=O)Nc1ccccc1)C(=O)N1CCCC1 [compound 68, 1,1-Tetramethylene-3-methyl-5-phenylbiuret] |  |  | 24 |  |  |  |  | 75 | 2/4 |  |
| Cc1ccc(NC(=O)N(C)C(=O)N(C)C)cc1C [Compound No. 30, 1,1,3-Trimethyl-5-(3,4-dimethylphenyl)biuret] |  | 1/4 | 31 |  |  |  |  |  |  | 86 |
